The assay concerns the target T1, recombinant human mGluR2 (Homo sapiens, UniProt Q14416).
T1 construct: expressed in transfected cells
In words: FLIPR Ca2+ mobilization assay, potentiation of glutamate (EC20) response. The assay is classed as cell-based. As to conditions: CHO dhfr- cells expressing human mGluR2 and Gα16; potentiation with EC20 glutamate (900 nM); read-out: Representative FLIPR EC50 Values. The protocol:
Potencies are determined as follows. The compounds of the present invention may be tested in a fluorescence laser imaging plate reader (FLIPR) based assay. This assay is a common functional assay to monitor Ca^2+ mobilization in whole cells expressing recombinant receptor coupled with a promiscuous G-protein. CHO dhfr− cells stably expressing recombinant human mGluR2 and Gα16 loaded with Fluo-4 AM (Invitrogen, Carlsbad Calif.) are treated with varying concentrations of compounds and the Ca^2+ response is monitored on a FLIPR384 (Molecular Devices, Sunnydale Calif.) for agonist activity. The potentiation response is monitored after a subsequent addition of an EC20 concentration of glutamate (900 nM). The maximum calcium response at each concentration of compound for agonism or potentiation are plotted as dose responses curves fitted with a four parameters logistic equation giving EC50 and Hill coefficient using the iterative non linear curve fitting software program.
In general terms: A change in cytosolic calcium serves as a functional read-out for many receptors and channels.

Each structure is given as a SMILES string. pEC50: −log10 of the molar value.

T1 sequence (Q14416 19-872): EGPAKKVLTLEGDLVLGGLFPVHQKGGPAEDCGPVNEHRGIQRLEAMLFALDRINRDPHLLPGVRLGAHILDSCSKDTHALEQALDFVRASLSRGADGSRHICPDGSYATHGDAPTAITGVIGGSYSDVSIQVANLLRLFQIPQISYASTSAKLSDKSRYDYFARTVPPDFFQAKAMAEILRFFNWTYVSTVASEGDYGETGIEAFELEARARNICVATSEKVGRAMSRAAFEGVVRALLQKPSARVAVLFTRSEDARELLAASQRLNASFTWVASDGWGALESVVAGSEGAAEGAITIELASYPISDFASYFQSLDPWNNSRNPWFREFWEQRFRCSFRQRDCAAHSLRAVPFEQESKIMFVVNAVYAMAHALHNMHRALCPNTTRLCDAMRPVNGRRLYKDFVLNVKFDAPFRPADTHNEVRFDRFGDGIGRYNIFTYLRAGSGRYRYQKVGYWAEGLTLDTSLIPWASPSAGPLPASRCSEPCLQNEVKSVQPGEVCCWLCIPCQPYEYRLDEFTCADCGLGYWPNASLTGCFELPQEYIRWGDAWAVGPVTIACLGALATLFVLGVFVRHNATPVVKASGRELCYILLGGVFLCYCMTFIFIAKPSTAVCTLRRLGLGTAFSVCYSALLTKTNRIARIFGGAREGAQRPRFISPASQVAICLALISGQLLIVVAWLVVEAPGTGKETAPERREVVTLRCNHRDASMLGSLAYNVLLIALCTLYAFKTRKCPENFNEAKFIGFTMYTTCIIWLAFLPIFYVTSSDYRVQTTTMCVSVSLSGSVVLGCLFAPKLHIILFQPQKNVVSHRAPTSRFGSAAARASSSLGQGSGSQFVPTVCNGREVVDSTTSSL

A word on the pEC50: it is the EC50 on a negative log10 scale, so that one unit is a factor of ten. As for `O=C(NCc1cc(F)cnc1Oc1ccc2c(nnn2CC2CC2)c1Br)c1ccon1` [Example 284, N-[(2-{[4-bromo-1-(cyclopropylmethyl)-1H-benzotriazol-5-yl]oxy}-5-fluoropyridin-3-yl)methyl]isoxazole-3-carboxamide], the pEC50 is 7.19. On to `COCC(OC)c1cccnc1Oc1ccc2c(nnn2CC2CC2)c1Br` (centres unmarked) [Example 55, 4-bromo-1-(cyclopropylmethyl)-5-{[3-(1,2-dimethoxyethyl)pyridin-2-yl]oxy}-1H-benzotriazole], for which the pEC50 was 7.02. Take `FCC1CCN(Cc2cccnc2Oc2ccc3c(nnn3CC3CC3)c2Br)C1` (centres unmarked) [Example 215, 4-bromo-1-(cyclopropylmethyl)-5-[(3-{[3-(fluoromethyl)pyrrolidin-1-yl]methyl}pyridin-2-yl)oxy]-1H-benzotriazole]: the pEC50 was 6.89. Consider `CC(C)(O)c1cccnc1Oc1ccc2c(nnn2CC2CC2)c1Cl` [Example 396, 2-(2-{[4-chloro-1-(cyclopropylmethyl)-1H-benzotriazol-5-yl]oxy}pyridin-3-yl)propan-2-ol], for which the pEC50 was 6.25. With `Cc1cccnc1Oc1ccc2c(nnn2CC(C)(C)C)c1Br` [Example 122, 4-bromo-1-(2,2-dimethylpropyl)-5-[(3-methylpyridin-2-yl)oxy]-1H-benzotriazole], the pEC50 is 7.10. For the compound `OCC1C2CN(Cc3cc(Cl)cnc3Oc3ccc4c(nnn4CC4CC4)c3Br)CC12` (centres unmarked) [Example 357, {3-[(2-{[4-bromo-1-(cyclopropylmethyl)-1H-benzotriazol-5-yl]oxy}-5-chloropyridin-3-yl)methyl]-3-azabicyclo[3.1.0]hex-6-yl}methanol], the pEC50 was 7.89. With `OC(CF)(CF)c1cccnc1Oc1ccc2c(nnn2CC2CC2)c1Cl` [Example 398, 2-(2-{[4-chloro-1-(cyclopropylmethyl)-1H-benzotriazol-5-yl]oxy}pyridin-3-yl)-1,3-difluoropropan-2-ol], the pEC50 was 6.25. Regarding `CC(C)(C)OC(=O)N1C[C@@H]2C[C@H]1CN2Cc1cc(Cl)cnc1Oc1ccc2c(nnn2CC2CC2)c1Br` [Example 297, tert-butyl(1S,4S)-5-[(2-{[4-bromo-1-(cyclopropylmethyl)-1H-benzotriazol-5-yl]oxy}-5-chloropyridin-3-yl)methyl]-2,5-diazabicyclo[2.2.1] heptane-2-carboxylate], the pEC50 was 7.72. For the compound `FC(F)(F)CNCc1cccnc1Oc1ccc2c(nnn2CC2CC2)c1Br` [Example 213, N-[(2-{[4-bromo-1-(cyclopropylmethyl)-1H-benzotriazol-5-yl]oxy}pyridin-3-yl)methyl]-2,2,2-trifluoroethanamine], the pEC50 was 7.40.

On to `OC1(c2cccnc2Oc2ccc3c(nnn3CC3CC3)c2Cl)CCC(C(F)(F)F)CC1` (centres unmarked) [Example 411, 1-(2-{[4-chloro-1-(cyclopropylmethyl)-1H-benzotriazol-5-yl]oxy}pyridin-3-yl)-4-(trifluoromethyl) cyclohexanol], for which the pEC50 is 6.59.

Consider `CS(=O)(=O)N1CCN(Cc2cc(Cl)cnc2Oc2ccc3c(nnn3CC3CC3)c2Br)CC1` [Example 198, 4-bromo-5-[(5-chloro-3-{[4-(methylsulfonyl)piperazin-1-yl]methyl}pyridin-2-yl)oxy]-1-(cyclopropylmethyl)-1H-benzotriazole], for which the pEC50 is 8.52.

In the case of `Clc1cnc(Oc2ccc3c(nnn3CC3CC3)c2Br)c(CN2CC(n3cccn3)C2)c1` [Example 384, 4-bromo-5-[(5-chloro-3-{[3-(1H-pyrazol-1-yl)azetidin-1-yl]methyl}pyridin-2-yl)oxy]-1-(cyclopropylmethyl)-1H-benzotriazole], the pEC50 was 8.10. With `CC(O)c1cccnc1Oc1ccc2c(nnn2CC2CC2)c1C(F)(F)F` (racemic) [Example 418, (±)-1-(2-{[1-(cyclopropylmethyl)-4-(trifluoromethyl)-1H-benzotriazol-5-yl]oxy}pyridin-3-yl)ethanol], the pEC50 was 7.31.

For `CC(C)(C)C(O)c1cccnc1Oc1ccc2c(nnn2CC2CC2)c1Br` (centres unmarked) [Example 91, 1-(2-{[4-bromo-1-(cyclopropylmethyl)-1H-benzotriazol-5-yl]oxy}pyridin-3-yl)-2,2-dimethylpropan-1-ol], the negative-log EC50 (pEC50) is 8.22. Next, `CC(C)(C)C(O)c1cccnc1Oc1ccc2c(nnn2CC2CC2)c1Br` (centres unmarked) [Example 72, 1-(2-{[4-bromo-1-(cyclopropylmethyl)-1H-benzotriazol-5-yl]oxy}pyridin-3-yl)-2,2-dimethylpropan-1-ol]: 8.30; `CS(=O)(=O)N1CCCN(Cc2cc(Cl)cnc2Oc2ccc3c(nnn3CC3CC3)c2Br)CC1` [Example 280, 4-bromo-5-[(5-chloro-3-{[4-(methylsulfonyl)-1,4-diazepan-1-yl]methyl}pyridin-2-yl)oxy]-1-(cyclopropylmethyl)-1H-benzotriazole]: 8.10. As for `CC1CN(Cc2cc(F)cnc2Oc2ccc3c(nnn3CC3CC3)c2Br)CCN1S(C)(=O)=O` (stereo in doubt) [Example 290, 4-bromo-1-(cyclopropylmethyl)-5-[(5-fluoro-3-{[(3R)-3-methyl-4-(methylsulfonyl)piperazin-1-yl]methyl}pyridin-2-yl)oxy]-1H-benzotriazole], the pEC50 is 8.70. For `CC(O)c1ncccc1Oc1ccc2c(nnn2CC(C)(C)C)c1Br` (centres unmarked) [Example 151, 1-(3-{[4-bromo-1-(2,2-dimethylpropyl)-1H-benzotriazol-5-yl]oxy}pyridin-2-yl)ethanol], the negative logarithm of the EC50 (pEC50) is 6.91. `FC1(F)CCCN(Cc2cccnc2Oc2ccc3c(nnn3CC3CC3)c2Br)C1` [Example 204, 4-bromo-1-(cyclopropylmethyl)-5-({3-[(3,3-difluoropiperidin-1-yl)methyl]pyridin-2-yl}oxy)-1H-benzotriazole]: the pEC50 was 7.41. As for `OCC(O)c1cccnc1Oc1ccc2c(nnn2CC2CC2)c1Br` (centres unmarked) [Example 52, 1-(2-{[4-bromo-1-(cyclopropylmethyl)-1H-benzotriazol-5-yl]oxy}pyridin-3-yl)ethane-1,2-diol], the pEC50 was 6.09.

`CC(=O)N1CCCN(Cc2cc(F)cnc2Oc2ccc3c(nnn3CC3CC3)c2Br)CC1` [Example 253, 5-({3-[(4-acetyl-1,4-diazepan-1-yl)methyl]-5-fluoropyridin-2-yl}oxy)-4-bromo-1-(cyclopropylmethyl)-1H-benzotriazole]: the negative-log EC50 (pEC50) is 7.28. Take `OC(c1cccnc1Oc1ccc2c(nnn2CC2CC2)c1Br)C1CC1` (centres unmarked) [Example 93, (2-{[4-bromo-1-(cyclopropylmethyl)-1H-benzotriazol-5-yl]oxy}pyridin-3-yl)(cyclopropyl)methanol]: the pEC50 was 7.96. Turning to `Cn1cc(-c2cnc(Oc3ccc4c(nnn4CC(C)(C)C)c3Br)c(C#N)c2)cn1` [Example 169, 2-{[4-bromo-1-(2,2-dimethylpropyl)-1H-benzotriazol-5-yl]oxy}-5-(1-methyl-1H-pyrazol-4-yl)pyridine-3-carbonitrile], the pEC50 was 6.37.

As for `CS(=O)(=O)NC1CCN(Cc2cc(Cl)cnc2Oc2ccc3c(nnn3CC3CC3)c2Br)CC1` [Example 365, N-{1-[(2-{[4-bromo-1-(cyclopropylmethyl)-1H-benzotriazol-5-yl]oxy}-5-chloropyridin-3-yl)methyl]piperidin-4-yl}methanesulfonamide], the pEC50 was 8.10.

In the case of `CC(C)(C)Cn1nnc2c(Br)c(Oc3ncccc3C(F)(F)F)ccc21` [Example 111, 4-bromo-1-(2,2-dimethylpropyl)-5-{[3-(trifluoromethyl)pyridin-2-yl]oxy}-1H-benzotriazole], the pEC50 is 7.19. For the compound `Clc1cnc(Oc2ccc3c(nnn3CC3CC3)c2Br)c(CN2CCN(c3nccs3)CC2)c1` [Example 320, 4-bromo-5-[(5-chloro-3-{[4-(1,3-thiazol-2-yl)piperazin-1-yl]methyl}pyridin-2-yl)oxy]-1-(cyclopropylmethyl)-1H-benzotriazole], the negative-log EC50 (pEC50) is 8.30. Consider `FC1(F)CCN(Cc2cccnc2Oc2ccc3c(nnn3CC3CC3)c2Br)CC1` [Example 194, 4-Bromo-1-(cyclopropylmethyl)-5-({3-[(4,4-difluoropiperidin-1-yl)methyl]pyridin-2-yl}oxy)-1H-benzotriazole], for which the pEC50 is 7.49. Next, `OC(c1cccnc1Oc1ccc2c(nnn2CC2CC2)c1C(F)(F)F)C1CC1` (centres unmarked) [Example 421, cyclopropyl(2-{[1-(cyclopropylmethyl)-4-(trifluoromethyl)-1H-benzotriazol-5-yl]oxy}pyridin-3-yl)methanol]: 7.70. For `CCC(O)c1cccnc1Oc1ccc2c(nnn2CC(C)(C)C)c1Br` (centres unmarked) [Example 184, 1-(2-{[4-bromo-1-(2,2-dimethylpropyl)-1H-benzotriazol-5-yl]oxy}pyridin-3-yl)propan-1-ol], the pEC50 is 7.68. On to `CC(C)(C)Cn1nnc2c(Br)c(Oc3ccncc3)ccc21` [compound 423, 4-bromo-1-(2,2-dimethylpropyl)-5-pyridin-4-yloxy-1H-benzotriazole], for which the negative-log EC50 (pEC50) was 6.85. Regarding `CC1(O)CCN(Cc2cccnc2Oc2ccc3c(nnn3CC3CC3)c2Br)CC1` [Example 227, 1-[(2-{[4-bromo-1-(cyclopropylmethyl)-1H-benzotriazol-5-yl]oxy}pyridin-3-yl)methyl]-4-methylpiperidin-4-ol], the pEC50 was 6.15. For the compound `CC(C)(C)Cn1nnc2c(Br)c(Oc3cccc(Br)n3)ccc21` [Example 148, 4-bromo-5-[(6-bromopyridin-2-yl)oxy]-1-(2,2-dimethylpropyl)-1H-benzotriazole], the pEC50 was 7.64.

(Values after patent US8975286B2, “Ether benzotriazole derivatives” (Merck Sharp & Dohme Corp., priority 2009, dated 2015).)
